Reference: patent US8354410B2 (Bristol-Meyers Squibb Company, priority 2010, dated 2013)

Columns and labels:
[1] = target: T1, HCV NS5B (Hepatitis C virus genotype 1b, UniProt Q9WMX2); experiment: HCV NS5B RdRp enzyme assay; assay type: biochemical; conditions: HCV NS5B RdRp genotype 1b; standard or modified assay not specified
T1 construct: The protein was expressed with an 18 amino acid C-terminal truncation to enhance the solubility; made in house; host or cells: E. coli BL21(DE3)
Method: HCV NS5B RdRp cloning, expression, and purification. The cDNA encoding the NS5B protein of HCV, genotype 1b, was cloned into the pET21a expression vector. The protein was expressed with an 18 amino acid C-terminal truncation to enhance the solubility. The E. coli competent cell line BL21(DE3) was used for expression of the protein. Cultures were grown at 37° C. for ˜4 hours until the cultures reached an optical density of 2.0 at 600 nm. The cultures were cooled to 20° C. and induced with 1 mM IPTG. Fresh ampicillin was added to a final concentration of 50 μg/ml and the cells were grown overnight at 20° C.
Cell pellets (3 L) were lysed for purification to yield 15-24 mgs of purified NS5B. The lysis buffer consisted of 20 mM Tris-HCl, pH 7.4, 500 mM NaCl, 0.5% triton X-100, 1 mM DTT, 1 mM EDTA, 20% glycerol, 0.5 mg/ml lysozyme, 10 mM MgCl2, 15 ug/ml deoxyribonuclease I, and Complete TM protease inhibitor tablets (Roche). After addition of the lysis buffer, frozen cell pellets were resuspended using a tissue homogenizer. To reduce the viscosity of the sample, aliquots of the lysate were sonicated on ice using a microtip attached to a Branson sonicator. The sonicated lysate was centrifuged at 100,000×g for 1 hr at 4° C. and filtered through a 0.2 μm filter unit (Corning).
The protein was purified using three sequential chromatography steps: Heparin sepharose CL-6B, polyU sepharose 4B, and Hitrap SP sepharose (Pharmacia). The chromatography buffers were identical to the lysis buffer but contained no lysozyme, deoxyribonuclease I, MgCl2 or protease inhibitor and the NaCl concentration of the buffer was adjusted according to the requirements for charging the protein onto the column. Each column was eluted with a NaCl gradient which varied in length from 5-50 column volumes depending on the column type. After the final chromatography step, the resulting purity of the enzyme is >90% based on SDS-PAGE analysis. The enzyme was aliquoted and stored at −80° C.
Standard HCV NS5B RdRp enzyme assay. HCV RdRp genotype 1b assays were run in a final volume of 60 μl in 96 well plates (Costar 3912). The assay buffer is composed of 20 mM Hepes, pH 7.5, 2.5 mM KCl, 2.5 mM MgCl2, 1 mM DTT, 1.6 U RNAse inhibitor (Promega N2515), 0.1 mg/ml BSA (Promega R3961), and 2% glycerol. All compounds were serially diluted (3-fold) in DMSO and diluted further in water such that the final concentration of DMSO in the assay was 2%. HCV RdRp genotype 1b enzyme was used at a final concentration of 28 nM. A polyA template was used at 6 nM, and a biotinylated oligo-dT12 primer was used at 180 nM final concentration. Template was obtained commercially (Amersham 27-4110). Biotinylated primer was prepared by Sigma Genosys. 3H-UTP was used at 0.6 μCi (0.29 μM total UTP). Reactions were initiated by the addition of enzyme, incubated at 30° C. for 60 min, and stopped by adding 25 μl of 50 mM EDTA containing SPA beads (4 μg/μl, Amersham RPNQ 0007). Plates were read on a Packard Top Count NXT after >1 hr incubation at room temperature.
Modified HCV NS5B RdRp enzyme assay. A modified enzyme assay was performed essentially as described for the standard enzyme assay except for the following: The biotinylated oligo dT12 primer was precaptured on streptavidin-coated SPA beads by mixing primer and beads in assay buffer and incubating at room temperature for one hour. Unbound primer was removed after centrifugation. The primer-bound beads were resuspended in 20 mM Hepes buffer, pH 7.5 and used in the assay at final concentrations of 20 nM primer and 0.67 μg/μl beads. Order of addition in the assay: enzyme (14 nM) was added to diluted compound followed by the addition of a mixture of template (0.2 nM), 3H-UTP (0.6 μCi, 0.29 μM), and primer-bound beads, to initiate the reaction; concentrations given are final. Reactions were allowed to proceed for 4 hours at 30° C.
IC50 values for compounds were determined using seven different [I]. […]

[2] = tested on: HCV replicon; experiment: HCV replicon assay (FRET / luciferase reporter); assay type: cell-based, HCV (HUH-7 cells); conditions: Hepatitis C virus; HCV replicon cells
From the text: FRET Assay Preparation. To perform the HCV FRET screening assay, 96-well cell culture plates were used. The FRET peptide (Anaspec, Inc.) (Taliani et al., Anal. Biochem. 1996, 240, 60-67) contains a fluorescence donor, EDANS, near one end of the peptide and an acceptor, DABCYL, near the other end. The fluorescence of the peptide is quenched by […] resonance energy transfer (RET) between the donor and the acceptor, but as the NS3 protease cleaves the peptide the products are released from RET quenching and the fluorescence of the donor becomes apparent. The assay reagent was made as follows: 5× cell Luciferase cell culture lysis reagent from Promega (#E153A) diluted to 1× with dH2O, NaCl added to 150 mM final, the FRET peptide diluted to 20 μM final from a 2 mM stock.
To prepare plates, HCV replicon cells, with or without a Renilla luciferase reporter gene, were trypsinized and placed into each well of a 96-well plate with titrated test compounds added in columns 3 through 12; columns 1 and 2 contained a control compound (HCV protease inhibitor), and the bottom row contained cells without compound. The plates were then placed in a CO2 incubator at 37° C.
Assays. Subsequent to addition of the test compounds described above (FRET Assay Preparation), at various times the plate was removed and Alamar blue solution (Trek Diagnostics, #00-100) was added per well as a measure of cellular toxicity. After reading in a Cytoflour 4000 instrument (PE Biosystems), plates were rinsed with PBS and then used for FRET assay by the addition of 30 ul of the FRET peptide assay reagent described above (FRET Assay Preparation) per well. The plate was then placed into the Cytoflour 4000 instrument which had been set to 340 excite/490 emission, automatic mode for 20 cycles and the plate read in a kinetic mode. Typically, the signal to noise using an endpoint analysis after the reads was at least three-fold. Alternatively, after Alamar blue reading, plates were rinsed with PBS, 50 ul of DMEM (high glucose) without phenol red was added and plates were then used for luciferase assay using the Promega Dual-Glo Luciferase Assay System.
Compound analysis was determined by quantification of the relative HCV replicon inhibition and the relative cytotoxicity values. To calculate cytoxicity values, the average Alamar Blue fluorescence signals from the control wells were set as 100% non-toxic. The individual signals in each of the compound test wells were then divided by the average control signal and multiplied by 100% to determine […]. To calculate the HCV replicon inhibition values, an average background value was obtained from the two wells containing the highest amount of HCV protease inhibitor at the end of the assay period. These numbers were similar to those obtained from naïve Huh-7 cells.
The background numbers were then subtracted from the average signal obtained from the control wells and this number was used as 100% activity. The individual signals in each of the compound test wells were then divided by the averaged control values after background subtraction and multiplied by 100% to determine percent activity. EC50 values for a protease inhibitor titration were calculated as the concentration which caused a 50% reduction in FRET or luciferase activity. The two numbers generated for the compound plate, percent cytoxicity and percent activity were used to determine compounds of interest for further analysis.
The HCV replicon luciferase assay was developed to monitor the inhibitory effects of compounds described in the disclosure on HCV viral replication. Utilization of a replicon luciferase reporter assay was first described by Krieger et al (Krieger N, Lohmann V, and Bartenschlager R, J. Virol. 75(10):4614-4624 (2001)). HUH-7 cells, constitutively expressing the HCV replicon, were grown in Dulbecco's Modified Eagle Media (DMEM) (Gibco-BRL) containing 10% Fetal calf serum (FCS) (Sigma) and 1 mg/ml G418 (Gibco-BRL). […]

[3] = tested on: HCV; conditions: cited from earlier work

T1 sequence (Q9WMX2 2420-2992): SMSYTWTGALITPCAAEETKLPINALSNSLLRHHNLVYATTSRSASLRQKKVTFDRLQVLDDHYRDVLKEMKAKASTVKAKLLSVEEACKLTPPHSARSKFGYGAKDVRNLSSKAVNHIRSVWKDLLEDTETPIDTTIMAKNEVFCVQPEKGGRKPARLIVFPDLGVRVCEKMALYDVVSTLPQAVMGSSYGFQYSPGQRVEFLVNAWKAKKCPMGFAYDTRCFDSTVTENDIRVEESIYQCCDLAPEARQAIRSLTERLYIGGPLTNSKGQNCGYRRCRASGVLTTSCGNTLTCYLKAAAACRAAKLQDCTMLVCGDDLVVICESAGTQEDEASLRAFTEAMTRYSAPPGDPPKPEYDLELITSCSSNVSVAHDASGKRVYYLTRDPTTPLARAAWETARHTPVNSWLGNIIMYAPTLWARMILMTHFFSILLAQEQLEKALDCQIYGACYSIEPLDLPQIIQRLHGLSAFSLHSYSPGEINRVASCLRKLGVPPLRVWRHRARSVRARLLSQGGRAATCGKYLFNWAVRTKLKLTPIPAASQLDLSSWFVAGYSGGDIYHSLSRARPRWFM

Molecule	IC50 [1]	EC50 [2]	hepatic toxicity ([3]; extended dosing of the combination regimens)	HCV RNA levels in patients ([3]; patients, single agent: transient decrease then rebound, more robust drop with interferon and ribavirin)	sustained efficacy ([3]; combination therapy (Poynard et al. 1998))
CNC(=O)c1c(-c2ccc(F)cc2)oc2ccc(-c3cc(C(=O)NC4(c5ccc6cnccc6n5)CC4)c(OC)cc3C)c(F)c12 [5-(5-(1-(1,6-naphthyridin-2-yl)cyclopropylcarbamoyl)-4-methoxy-2-methylphenyl)-4-fluoro-2-(4-fluorophenyl)-N-methylbenzofuran-3-carboxamide]	100 nM	9 nM			
CNC(=O)c1c(-c2ccc(F)cc2)oc2ccc(-c3cc(C(=O)NC4(c5ccc6ccncc6n5)CC4)c(OC)cc3C)c(F)c12 [5-(5-(1-(1,7-naphthyridin-2-yl)cyclopropylcarbamoyl)-4-methoxy-2-methylphenyl)-4-fluoro-2-(4-fluorophenyl)-N-methylbenzofuran-3-carboxamide]	30 nM	6 nM			
CNC(=O)c1c(-c2ccc(F)cc2)oc2ccc(-c3cc(C(=O)N[C@H](C)c4nc5cnccc5o4)cc(F)c3C)c(F)c12 [5-(5-(1-(1H-imidazo[4,5-o]pyridin-2-yl)cyclopropylcarbamoyl)-2-methylphenyl)-4-fluoro-2-(4-fluorophenyl)-N-methylbenzofuran-3-carboxamide]	30 nM	40 nM			
CNC(=O)c1c(-c2ccc(F)cc2)oc2cc(N(CCO)S(C)(=O)=O)c(C3CC3)cc12 [HCV-796]			hepatic toxicity observed	ability to reduce HCV RNA levels in patients	
alpha-interferon and ribavirin					40 % of patients
